Experimental findings from publication PMC5034536, “Molecular insights into substrate recognition and catalytic mechanism of the chaperone and FKBP peptidyl-prolyl isomerase SlyD” (BMC Biology, 2016) are described below.

Data set [1] concerns the target TtSlyDΔIF (IF domain replaced by the flap loop from human FKBP12) (Thermus thermophilus, UniProt Q5SLE7). The class given is binding. The note with it: ITC one-site model (FKBP domain), 25 °C; for Kd: read-out: KD2.
Data set [2] concerns the target T1, TtSlyDFL (full-length SlyD from Thermus thermophilus) (Thermus thermophilus, UniProt Q5SLE7).
T1 sequence (Q5SLE7 1-149): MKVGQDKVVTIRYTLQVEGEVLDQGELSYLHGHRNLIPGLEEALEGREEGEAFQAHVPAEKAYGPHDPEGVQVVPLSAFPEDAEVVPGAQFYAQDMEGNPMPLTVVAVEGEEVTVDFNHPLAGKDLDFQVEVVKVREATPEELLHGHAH
Nature of the data set: ITC binding of peptides to full-length TtSlyD. As to conditions: for ΔH1 / –T · ΔS1 / N1: site 1 (IF domain).
Description: ITC measurements were performed on iTC200 or VP-ITC instruments (GE Healthcare, Chalfont St. Giles, UK). The calorimetric cell (with a total cell volume of 220 μl in the iTC200, or 1400 μl in the VP-ITC) contained 50–200 μM TtSlyDFL dissolved in 20 mM HEPES, 100 mM NaCl, pH 7.5. Peptide samples of 700–2000 μM were titrated into the cell at 20 °C (VP-ITC) or 25 °C (iTC200). The heat generated after each ligand injection was obtained by integration of the calorimetric signal. Resulting binding isotherms were analyzed according to a one-site or two-site binding site model using the Origin software (OriginLab Corp., Northampton, MA, USA).

The test system of data set [3] is TtSlyDFL. Description: Michaelis-Menten analysis with S2-P25A peptide by NMR lineshape analysis. The class given is biochemical, Thermus thermophilus. As to conditions: 25 °C. The procedure:
(§1) Having validated the method, we next turned to the longer unmodified peptides of interest here. […] The ^13C shifts of proline in the S2-P25A peptide show the same characteristics as an isolated proline amino acid. […] We determined apparent rate constants for TtSlyDFL and TtSlyDΔIF as a function of peptide concentration (Fig. 7b). The resulting kcat/KM value was 368 ± 4 μM^–1s^–1 for TtSlyDFL, which is a factor of 100–1000 higher compared to results obtained previously for various members of the SlyD family using tetrapeptides or unfolded proteins, and even exceeds those generally reported for FKBPs and other PPIases. […] However, the difference in kcat/KM between TtSlyDFL and TtSlyDΔIF is much smaller than what has been observed using protein substrates, and may simply relate to the lower binding affinity of TtSlyDΔIF relative to TtSlyDFL (in this scenario, KM would be larger for TtSlyDΔIF). In the case of TtSlyDFL we could separate the two parameters, yielding kcat = (0.7 ± 0.1) 10^6 s^–1 and KM = 2.0 ± 0.4 mM.
(§2) Lineshape analysis was performed using MATLAB.
(§3) Activity studies using the 15-residue-long S2-P25A peptide utilized a sample with a uniformly ^13C-labeled proline residue. ^1H–^13C HSQC experiments were used to separate the peptide signals in two dimensions, such that the cis and trans forms could both be detected without overlap. […] One-dimensional ^1H slices of the β and γ protons for the cis and trans forms were extracted from the two-dimensional spectrum, and lineshape analysis was applied. Michaelis-Menten-like studies were performed using a fixed concentration of TtSlyDFL of 0.2 μM and peptide concentrations ranging from 10 to 1000 μM.

The test system of data set [4] is TtSlyDΔIF. Described as above. As to conditions: 25 °C. The class given is biochemical, Thermus thermophilus. The procedure: as §1, §2, §3
The nature of data set [5]: Relative population of the cis form of the peptide by NMR. The class given is physicochemical. As to conditions: free S2-P25A peptide with 13C-labeled proline (P29); comparison of cis and trans NMR intensities; 25 °C. The procedure: as §1
Activity studies using the 15-residue-long S2-P25A peptide utilized a sample with a uniformly ^13C-labeled proline residue. ^1H–^13C HSQC experiments were used to separate the peptide signals in two dimensions, such that the cis and trans forms could both be detected without overlap. […]

[6] abbreviates: ITC two-site model, site 2 (FKBP domain) stoichiometry, 25 °C.
Setting [7] is: ITC two-site model, site 2 (FKBP domain), 25 °C.
The mark [8] stands for this setting: ITC two-site model, 20 °C, wild-type TtSlyDFL.
[9] abbreviates: ITC two-site model, site 2 (FKBP domain), 20 °C, wild-type TtSlyDFL.
[10] abbreviates: ITC single binding site model, 25 °C.
Setting [11] is: S2-P25A peptide as substrate, NMR lineshape analysis.
Setting [12] is: ITC two-site model, 25 °C, 5 % DMSO.
The mark [13] stands for this setting: ITC two-site model, site 2 (FKBP domain), 25 °C, 5 % DMSO.

“And” between values parts separate entries of the source, which are not always exact repeats. Equal values may be shown once. Read-outs that look alike come from different tables or passages of the source. No end group written: not given here.

For the substance TRYANPKMKPFIFGA-NH2 [S2-W23A], in data set [1], the N2 worked out at 0.77 ± 0.02, the ΔH2 entry is given as “–8.1 ± 0.25 kcal/mol”, the “–T · ΔS2” value is recorded as 1.6 kcal/mol and the Kd was found to be 17.1 ± 1.13 µM. For the same substance, in data set [2] (ITC two-site model, 25 °C), the ΔH1 entry was “–15.8 ± 0.24 kcal/mol” and the “–T · ΔS1” value was found to be 7.5 kcal/mol. In data set [2] (setting [6]), this substance displayed an N2 of 0.91 ± 0.40. In data set [2] (setting [7]), the ΔH2 entry was “–2.3 ± 0.97 kcal/mol” and the “–T · ΔS2” value was “–4.2 kcal/mol”.
For YWNPKMKPFIF-NH2 [S2-short4], in data set [2] (setting [8]), the N1 amounted to 0.73 ± 0.24, the ΔH1 result is recorded as “–10.7 ± 2.33 kcal/mol” and the “–T · ΔS1” value is 2.7 kcal/mol. For the same substance, in data set [2] (setting [9]), the N2 turned out to be 0.87 ± 0.23, the ΔH2 result is recorded as “–6.3 ± 3.02 kcal/mol” and the “–T · ΔS2” value is “–0.9 kcal/mol”.
With WNPKMKPFIFGARNK-NH2 [S2-plus1], in data set [2] (ITC two-site model, 25 °C), the ΔH1 entry is on record as “–11.4 ± 0.13 kcal/mol” and the “–T · ΔS1” value came out at 2.3 kcal/mol. In data set [2] (setting [6]), this substance yielded an N2 of 0.94 ± 0.03. In data set [2] (setting [7]), the ΔH2 entry was “–7.8 ± 0.23 kcal/mol” and the “–T · ΔS2” value is recorded as 0.4 kcal/mol.
Regarding TRYWNPKMKEFIFGA-NH2 [S2-P29E], in data set [1], the N2 stood at 0.69 ± 0.03, the ΔH2 entry was “–10.8 ± 0.27 kcal/mol”, the “–T · ΔS2” value was determined as 4.2 kcal/mol and the Kd stood at 13.8 ± 0.88 µM. For the same substance, in data set [2] (ITC two-site model, 25 °C), the ΔH1 entry is “–15.8 ± 0.16 kcal/mol” and the “–T · ΔS1” value came to 7.2 kcal/mol. This substance showed an N2 in data set [2] (setting [6]) of 1.02 ± 0.04. In data set [2] (setting [7]), the ΔH2 result was “–2.7 ± 0.48 kcal/mol” and the “–T · ΔS2” value is “–4.5 kcal/mol”.
SGLVTRGS-NH2 [SlpA linker P5T]: the Kd in data set [2] worked out at 130 ± 20 µM. Besides, in data set [2] (setting [10]), the N2 is reported as 1.76 ± 0.12, the ΔH2 result is “–0.9 ± 0.10 kcal/mol” and the “–T · ΔS2” value is “–4.4 kcal/mol”.
Turning to TRYWNAKMKPFIFGA-NH2 [S2-P25A], the kcat/KM was 3.68 ± 0.04 10^8 M^−1s^−1 and 3.7 10^8 M^−1s^−1 in data set [3] (S2-P25A as substrate (cis concentration), 0.2 μM enzyme, Michaelis-Menten fitting); 368 ± 4 μM^–1s^–1 in data set [3] (setting [11]); 2.5 10^8 M^−1s^−1 in data set [4] (S2-P25A as substrate (cis concentration), 0.2 μM enzyme); 248 ± 1 μM^–1s^–1 in data set [4] (setting [11]). In data set [3] (S2-P25A as substrate), the kcat is reported as 0.7 ± 0.1 10^6 s^–1. The “relative population of the cis form (cis content)” value in data set [5] was determined as 14.5 ± 1%. In addition, the N2 worked out at 0.91 ± 0.01 in data set [1] and 1.02 ± 0.04 in data set [2] (setting [6]). For the same substance, the ΔH2 result in data set [1] was “–11.7 ± 0.24 kcal/mol”; in data set [2] (setting [7]), “–8.5 ± 0.82 kcal/mol”. Further, the “–T · ΔS2” value in data set [1] is recorded as 5.0 kcal/mol; in data set [2] (setting [7]) it was 1.5 kcal/mol. Also, the Kd in data set [1] is 12.1 ± 0.76 µM. In data set [2] (ITC two-site model, 25 °C), the ΔH1 entry is “–16.6 ± 0.16 kcal/mol”. Also, the “–T · ΔS1” value in data set [2] (ITC two-site model, 25 °C) is on record as 7.2 kcal/mol.
In the case of TRYWNAKMKEFIFGA-NH2 [S2-P25A/P29E], in data set [1] (5 % DMSO), the N2 turned out to be 0.84 ± 0.06, the ΔH2 result is listed as “–6.3 ± 0.58 kcal/mol”, the “–T · ΔS2” value is 0.1 kcal/mol and the Kd is 29 ± 4.62 µM. In data set [2] (setting [12]), the N1 stood at 1.13 ± 0.03, the ΔH1 entry is “–14.1 ± 0.33 kcal/mol” and the “–T · ΔS1” value was 6.1 kcal/mol. In data set [2] (setting [13]), the N2 is 1.09 ± 0.24, the ΔH2 entry is given as “–5.9 ± 1.91 kcal/mol” and the “–T · ΔS2” value is on record as “–0.1 kcal/mol”.
With KMKPFIFGARNKVHI-NH2 [S2-plus2], in data set [2] (ITC two-site model, 25 °C), the ΔH1 result is “–13.1 ± 0.14 kcal/mol” and the “–T · ΔS1” value is reported as 3.9 kcal/mol. This substance also showed an N2 in data set [2] (setting [6]) of 0.75 ± 0.04. In data set [2] (setting [7]), the ΔH2 entry is reported as “–8.4 ± 0.39 kcal/mol” and the “–T · ΔS2” value came to 1.2 kcal/mol.
For the substance KAGVHFGHQTRYWNP-NH2 [S2-minus3], in data set [2] (ITC two-site model, 25 °C), the ΔH1 result is given as “–17.0 ± 0.73 kcal/mol” and the “–T · ΔS1” value is 9.4 kcal/mol. The same substance showed an N2 in data set [2] (setting [6]) of 1.17 ± 0.06. Further, in data set [2] (setting [7]), the ΔH2 entry was “–2.1 ± 1.41 kcal/mol” and the “–T · ΔS2” value is reported as “–4.8 kcal/mol”.
As for GHQTRYWNPKMKPFI-NH2 [S2-minus1], in data set [2] (ITC two-site model, 25 °C), the ΔH1 result is given as “–16.6 ± 0.12 kcal/mol” and the “–T · ΔS1” value is reported as 8.2 kcal/mol. For the same substance, the N2 in data set [2] (setting [6]) amounted to 0.82 ± 0.02. Further, in data set [2] (setting [7]), the ΔH2 result is given as “–11.1 ± 0.29 kcal/mol” and the “–T · ΔS2” value was determined as 4.1 kcal/mol.
In the case of VHFGHQTRYWNPKMK-NH2 [S2-minus2], in data set [2] (ITC two-site model, 25 °C), the ΔH1 result is listed as “–16.1 ± 0.21 kcal/mol” and the “–T · ΔS1” value is 8.1 kcal/mol. In data set [2] (setting [6]), this substance came in with an N2 of 0.99 ± 0.06. Besides, in data set [2] (setting [7]), the ΔH2 entry was “–4.3 ± 0.92 kcal/mol” and the “–T · ΔS2” value is “–2.3 kcal/mol”.
For the substance RYWNPKMKPFIFG-NH2 [S2-short2], in data set [2] (setting [8]), the N1 was 0.72 ± 0.03, the ΔH1 entry was “–9.7 ± 0.21 kcal/mol” and the “–T · ΔS1” value stood at 0.9 kcal/mol. Further, in data set [2] (setting [9]), the N2 was 0.91 ± 0.02, the ΔH2 entry is “–5.5 ± 0.34 kcal/mol” and the “–T · ΔS2” value is listed as “–1.9 kcal/mol”.
In the case of TRYWNNKMKNFIFGA-NH2 [S2-P25N/P29N], in data set [2] (setting [12]), the N1 worked out at 0.93 ± 0.02, the ΔH1 entry is “–16.8 ± 0.12 kcal/mol” and the “–T · ΔS1” value amounted to 7.8 kcal/mol. In addition, in data set [2] (setting [13]), the N2 turned out to be 1.18 ± 0.18, the ΔH2 entry is “–2.3 ± 0.33 kcal/mol” and the “–T · ΔS2” value is reported as “–4.4 kcal/mol”.
